Measured values from publication PMC9698323, “Interaction of Destruxin A with Three Silkworm Proteins: BmCRT, BmDPP3, and BmPDIA5” (Molecules, 2022).
pKd: −log10 of the molar value. Square brackets hold non-standard residues; d marks the D form. Peptide text beside a SMILES is read from it. dLac(3-vinyl) = C=CC[C@@H](O)C(=O)O; NMeV = CN[C@H](C(=O)O)C(C)C; NMeA = CN[C@@H](C)C(=O)O; βAla = NCCC(=O)O

Assays:
[1] = biological target: BmPDIA5 (protein disulfide isomerase A5); assay: SPR (Biacore 8K), multi-cycle kinetics; type: binding, Bombyx mori; settings: 1 × PBSP, 5% DMSO; DA 15.6-250 µmol/L
BmCRT (calreticulin) = biological target: T1, BmCRT (calreticulin) (Bombyx mori, UniProt Q7Z1E6); assay: SPR (Biacore 8K), multi-cycle kinetics; type: binding
T1 construct: gene crt
T1 sequence (Q7Z1E6 20-398): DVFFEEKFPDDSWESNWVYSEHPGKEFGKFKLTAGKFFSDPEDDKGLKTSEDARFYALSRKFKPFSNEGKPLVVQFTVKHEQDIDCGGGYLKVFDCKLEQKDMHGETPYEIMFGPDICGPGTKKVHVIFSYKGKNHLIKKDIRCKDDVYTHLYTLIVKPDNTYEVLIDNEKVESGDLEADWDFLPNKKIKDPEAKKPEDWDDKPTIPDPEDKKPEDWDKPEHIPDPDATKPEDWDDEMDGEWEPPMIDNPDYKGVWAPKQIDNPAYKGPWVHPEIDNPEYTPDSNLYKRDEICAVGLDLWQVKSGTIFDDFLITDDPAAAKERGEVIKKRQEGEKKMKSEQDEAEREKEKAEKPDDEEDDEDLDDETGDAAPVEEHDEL

## C=CC[C@H]1OC(=O)CCNC(=O)[C@H](C)N(C)C(=O)[C@H](C(C)C)N(C)C(=O)[C@H]([C@@H](C)CC)NC(=O)[C@@H]2CCCN2C1=O [DA, Destruxin A] (cyclo([dLac(3-vinyl)]PI[NMeV][NMeA][βAla]))
[1]
  pKd: 4.03
BmCRT (calreticulin)
  pKd: 3.70
